# Laboratory results reported in publication PMC8096218, “Global RNA profiles show target selectivity and physiological effects of peptide-delivered antisense antibiotics” (Nucleic Acids Research, 2021).
# Where two headings read alike, the source gives them in different places. Where a SMILES comes first, the peptide text is derived from it. [ ]: non-standard residue; d: D form. Ahx = NCCCCCC(=O)O
# Columns and labels:
# [1] = test system: Salmonella gene expression; assay: RNA-seq transcriptomic response; type: cell-based, Salmonella enterica serovar Typhimurium; settings: 15 min; for number of differentially expressed genes: absolute fold change >2 and FDR-adjusted P-value <0.001 versus water; for number of differentially expressed genes / logFC AmgR / logFC mig-14 / logFC virK: 5 μM KFF-/RXR-constructs
# Method: Bacterial overnight cultures were diluted 1:100 in fresh MHB and grown to OD600 0.5. The obtained cultures were diluted to ∼10^6 cfu/ml in non-cation-adjusted MHB. Afterward, the bacterial solution was transferred into low-binding 5 ml tubes (LABsolute) along with the 20× PNA, peptide or PPNA solution. The final concentrations were 5 μM for KFF- and RXR-PNAs, and 10 μM for Tat-PNAs. Equimolar concentrations were used for the respective peptide control conditions. As a negative control, cells were treated with the respective volume of sterile nuclease-free water, which was used as solvent for the test compounds.
# A time kinetic was performed for subsequent northern blot analysis (5, 10, 15 min), in which the reaction was stopped at the indicated time points by using RNAprotect Bacteria (Qiagen). For RNA-seq analyses, adding RNAprotect Bacteria at 15 min post treatment stopped the reactions with the indicated PPNA constructs or the respective peptide. After vortexing for 5 s, the samples were incubated at room temperature for 10 min, followed by cell pelleting at 4°C and 21 100 ×g for 20 min. Pellets were directly used for RNA isolation or stored at –20°C (<2 days) until further processing. RNA was purified from bacterial pellets using isolation protocol #3, as described above (0.5 mg/ml lysozyme, miRNeasy).
# DNase treatment, cDNA library preparation and sequencing was conducted at Vertis (Munich, Germany). The RNA samples were first fragmented using ultrasound (4 pulses of 30 s each at 4°C). Then, an oligonucleotide adapter was ligated to the 3′ ends of the RNA molecules. First-strand cDNA synthesis was performed using M-MLV reverse transcriptase and the 3′ adapter as primer. The first-strand cDNA was purified and the 5′ Illumina TruSeq sequencing adapter was ligated to the 3′ end of the antisense cDNA. The resulting cDNA was PCR-amplified to about 10–20 ng/μl using a high fidelity DNA polymerase. The cDNA was purified using the Agencourt AMPure XP kit (Beckman Coulter Genomics) and was analyzed by capillary electrophoresis. For Illumina NextSeq sequencing, the samples were pooled in approximately equimolar amounts. The cDNA pool was sequenced on an Illumina NextSeq 500 system using 75 bp read length.
# Reads from the RNA-Seq experiments were trimmed, filtered and mapped against the S. enterica subsp. enterica serovar Typhimurium SL1344 reference genome and the three plasmids pSLT_SL1344, pCol1B9_SL1344 (other name is p2), and pRSF1010_SL1344 ([19]). BBDuk was applied to trim bases with a Phred quality score of <10, and adapters were removed simultaneously. Reads were then mapped against the reference genome using BBMap (v38.84) and then assigned genomic features, including both coding sequences and annotated sRNAs ([19],[29]) using the featureCounts method of the Subread (2.0.1) package.
# All downstream analysis was performed using packages from the R/Bioconductor project. The raw read counts were imported and analyzed with edgeR (v3.30.0). Each set of PNA-peptide conjugate experiments (i.e. experiments with KFF, RXR and Tat peptide) was analyzed simultaneously. Genes with less than 14.6 counts per million (CPM) in at least three libraries were filtered. This cutoff value was calculated using 10/L, where L is the library size of the smallest sample (minimum library size) in millions.
# Raw read counts were normalized by trimmed mean of M values (TMM) normalization. Differential expression analysis was conducted using edgeR ([31]). Estimation of quasi-likelihood (QL) dispersions was then run with the […] function. Then contrasts between all samples versus the water controls were created as input for the glmQLTest function.
# Genes with an absolute fold change >2 and an adjusted P-value (Benjamini–Hochberg, ([32])) <0.001 were considered differentially expressed.
# [2] = test system: wild-type (wt) Salmonella enterica serovar Typhimurium strain SL1344
# Method: (§1) MIC values were determined by broth microdilution according to standard protocols with a few modifications ([26]). An overnight bacterial cell culture, supplemented with the appropriate antibiotic when needed, was diluted 1:100 in fresh MHB and grown to OD600 0.5. The obtained culture was diluted to ∼10^5 cfu/ml or 10^6 cfu/ml, as indicated, in non-cation-adjusted MHB. Subsequently, 190 μl bacterial solution was dispensed into a 96-well plate (Thermo Fisher Scientific) along with 10 μl of a 20x PPNA, PNA or peptide working solution. Growth was monitored by measuring the OD at 600 nm every 20 min in a Synergy H1 plate reader (Biotek) with continuous double-orbital shaking (237 cpm) at 37°C for 24 h.
# [3] = test system: LT2 PhoP^C; assay: MIC determination by broth microdilution; type: cell-based, Salmonella enterica serovar Typhimurium; settings: Table 3; ∼10^5 cfu/ml; three biological replicates
# Method: as §1
# (§2) Fig. S5. Growth k inetics for MIC determ ination of 10^5 cfu/m l Salmonella wt (LT 2) and its isogenic
# (§3) Pho PC m utant in the presen ce of var ying co ncentra tio n s of the in dicat ed co njugat e s. ( A) KFF-acpP,
# (§4) KFF-acpP-scram bled (scr) or KFF peptide in s erial dilutions from 10 µM to 0.3 µM. ( B) RXR- acpP,
# (§5) RXR- acpP-scram bled (scr) or RXR peptide in serial dilutions from 10 µM to 0.3 µ M. ( C) T at-acpP,
# (§6) T at-acpP-scram bled (scr) or T at peptide in serial dilutions from 20 µM to 0.6 µM. Data represent
# (§7) the average of three biological replicates, error bars indicate standard error of the m ean (SEM).
# (§8) (1 picture or pasted object on this page, not shown here)
# [4] = test system: SL1344 ΔphoP; assay: MIC determination by broth microdilution; type: cell-based, Salmonella enterica serovar Typhimurium; settings: Table 3; ∼10^5 cfu/ml; three biological replicates
# Method: as §1
# Fig. S4. Growth kinetics for MIC determ ination of 10^5 cfu/m l Salmonella wt (SL1344) and its isogenic ∆phoP m utant in the pres ence of var ying concentrations of the indicated conjugates. ( A) KFF-acpP, KFF-acpP-scram bled (scr) or KFF peptide in serial dilutions from 10 µM to 0.3 µM. ( B) RXR- acpP, RXR-acpP-scram bled (scr) or RXR peptide in seria l d ilutions f rom 10 µM to 0. 3 µM. ( C) T at-acpP, T at-acpP-scrambled (scr) or T at peptide in serial dilutions from 20 µM to 0.6 µM. D ata represent the average of three biological replicates, error bars indicate standard er ror of the m ean […]
# as §8
# [5] = test system: wild-type Salmonella enterica serovar Typhimurium strain LT2; assay: MIC determination by broth microdilution; type: cell-based; settings: Table 3; ∼10^5 cfu/ml; three biological replicates
# Method: as §1, §2, §3, §4, §5, §6, §7, §8
# [6] = edgeR, versus water, 10 μM Tat-constructs, triplicates
# [7] = edgeR, versus water, 5 μM, triplicates
# [8] = wild-type (wt) serovar Typhimurium strain SL1344, 24 h
# [9] = edgeR, versus water, 5 μM RXR-constructs, 10 μM Tat-constructs, triplicates
# [10] = edgeR, versus water, 10 μM, triplicates
# [11] = edgeR, versus water, 5 μM RXR-constructs, 10 μM Tat-constructs, triplicates, listed as PNATATscr
# [12] = Table 1, ∼10^5 cfu/ml, non-cation-adjusted MHB, 37°C, 24 h, lowest concentration with OD600 < 0.1
# [13] = Table 2, ∼10^6 cfu/ml, non-cation-adjusted MHB, 37°C, 24 h, performed three times
# [14] = Table 3, ∼10^5 cfu/ml, three biological replicates
# [15] = edgeR, versus water, 10 μM Tat-constructs, triplicates, listed as PNAKFFscr
compound,measurement,setting,value
"CC(=O)N[C@@H](CCCCN)C(=O)N[C@@H](Cc1ccccc1)C(=O)N[C@@H](Cc1ccccc1)C(=O)N[C@@H](CCCCN)C(=O)N[C@@H](Cc1ccccc1)C(=O)N[C@@H](Cc1ccccc1)C(=O)N[C@@H](CCCCN)C(=O)N[C@@H](Cc1ccccc1)C(=O)N[C@@H](Cc1ccccc1)C(=O)N[C@@H](CCCCN)C(=O)O [KFF, reference compound] (Ac-KFFKFFKFFK-OH; C-terminus assumed)",number of differentially expressed genes,[1]; 10 μM Tat-constructs,32
same,upregulation of AmgR transcript levels,"[1]; RNA-seq, 5 μM",~4 fold
same,logFC AmgR,[1]; [6],1.914
same,logFC mig-14,[1]; [6],2.101
same,logFC virK,[1]; [6],2.978
same,logFC yfbE,[1]; [7],1.473
same,logFC yjeH,[1]; [7],1.189
same,MIC,[2]; [8],>10 µM
same,"MIC in μM, SL1344 wt",[2]; [8],>10 µM
"CC(=O)N[C@@H](CCCNC(=N)N)C(=O)NCCCCCC(=O)N[C@@H](CCCNC(=N)N)C(=O)N[C@@H](CCCNC(=N)N)C(=O)NCCCCCC(=O)N[C@@H](CCCNC(=N)N)C(=O)N[C@@H](CCCNC(=N)N)C(=O)NCCCCCC(=O)N[C@@H](CCCNC(=N)N)C(=O)N[C@@H](CCCNC(=N)N)C(=O)NCCCCCC(=O)N[C@@H](CCCNC(=N)N)C(=O)NCCCCCC(=O)O [RXR, reference compound] (Ac-R[Ahx]RR[Ahx]RR[Ahx]RR[Ahx]R[Ahx]-OH; C-terminus assumed)",number of differentially expressed genes,[1]; 10 μM Tat-constructs,26
same,fold change in gene expression of phoQ,"[1]; RNA-seq, 5 μM, below cutoff of >2",1.87 fold
same,logFC AmgR,[1]; [6],1.916
same,logFC mig-14,[1]; [6],1.873
same,logFC virK,[1]; [6],2.819
same,logFC mgtA,[1]; [9],1.432
same,logFC yfbE,[1]; [7],1.219
same,MIC,[2]; [8],>10 µM
same,"MIC in μM, SL1344 wt",[2]; [8],>10 µM
"CC(C)C[C@H](NC(=O)[C@H](CCCNC(=N)N)NC(=O)[C@@H](NC(=O)[C@@H]1CCCN1C(=O)[C@@H]1CCCN1C(=O)[C@@H]1CCCN1C(=O)[C@H](CC(C)C)NC(=O)[C@H](CCCNC(=N)N)NC(=O)[C@@H](NC(=O)[C@@H]1CCCN1C(=O)[C@@H]1CCCN1C(=O)[C@@H]1CCCN1C(=O)[C@H](CC(C)C)NC(=O)[C@H](CCCNC(=N)N)NC(=O)[C@@H](N)C(C)C)C(C)C)C(C)C)C(=O)N1CCC[C@H]1C(=O)N1CCC[C@H]1C(=O)N1CCC[C@H]1C(=O)O [SAP, reference compound] (H-VRLPPPVRLPPPVRLPPP-OH; N-terminus and C-terminus assumed)",MIC,[2]; [8],>10 µM
"CC(C)C[C@H](NC(=O)[C@H](CCC(=O)O)NC(=O)[C@@H](NC(=O)[C@@H]1CCCN1C(=O)[C@@H]1CCCN1C(=O)[C@@H]1CCCN1C(=O)[C@H](CC(C)C)NC(=O)[C@H](CCC(=O)O)NC(=O)[C@@H](NC(=O)[C@@H]1CCCN1C(=O)[C@@H]1CCCN1C(=O)[C@@H]1CCCN1C(=O)[C@H](CC(C)C)NC(=O)[C@H](CCC(=O)O)NC(=O)[C@@H](N)C(C)C)C(C)C)C(C)C)C(=O)N1CCC[C@H]1C(=O)N1CCC[C@H]1C(=O)N1CCC[C@H]1C(=O)O [SAPE, reference compound] (H-VELPPPVELPPPVELPPP-OH; N-terminus and C-terminus assumed)",MIC,[2]; [8],>10 µM
"CC(=O)NCC(=O)N[C@@H](CCCNC(=N)N)C(=O)N[C@@H](CCCCN)C(=O)N[C@@H](CCCCN)C(=O)N[C@@H](CCCCN)C(=O)N[C@@H](CCCNC(=N)N)C(=O)N[C@@H](CCCNC(=N)N)C(=O)N[C@@H](CCC(N)=O)C(=O)N[C@@H](CCCNC(=N)N)C(=O)N[C@@H](CCCNC(=N)N)C(=O)N[C@@H](CCCNC(=N)N)C(=O)N[C@@H](Cc1ccc(O)cc1)C(=O)N[C@@H](CCCCN)C(=O)O [Tat, reference compound] (Ac-GRKKKRRQRRRYK-OH)",number of differentially expressed genes,[1]; 10 μM Tat-constructs,97
same,"maximum fold change, mgtB","[1]; RNA-seq, 10 μM",35 fold
same,logFC AmgR,[1]; [6],3.7167
same,logFC virK,[1]; [6],4.014
same,logFC mgtA,[1]; [9],2.72
same,logFC cigR,[1]; [10],3.46
same,logFC phoN,[1]; [10],2.478
same,"MIC in μM, SL1344 wt",[2]; [8],>20 µM
GRKKKRRQRRRYK [Tat-acpP-scr],"MIC in μM, LT2 PhoP^C",[3],>20 µM
same,"number of differentially expressed sRNAs, apart from AmgR upregulation","[1]; RNA-seq, 10 μM, listed as Tat-acpP-scrambled",13
same,logFC SL1344_0066A,[1]; [11],4.787
same,logFC SL1344_2742,[1]; [11],4.052
same,logFC SL1344_1472,[1]; [10],3.687
same,logFC ccmE2,[1]; [10],4.962
same,logFC recJ,"[1]; edgeR, versus water, 10 μM, triplicates, listed as PNATATscr",2.253
same,"MIC in μM, SL1344 ΔphoP",[4],20 µM
same,"MIC in μM, LT2 wt",[5],>20 µM
same,MIC,[2]; [12],>20 µM
same,MIC,[2]; [13],>40 µM
same,"MIC in μM, SL1344 wt",[2]; [14],>20 µM
KFFKFFKFFK [KFF-acpP-scr],"MIC in μM, LT2 PhoP^C",[3],>10 µM
same,number of differentially expressed genes,[1]; 10 μM Tat-constructs,10
same,upregulation of AmgR transcript levels,"[1]; RNA-seq, 5 μM, listed as KFF-acpP-scrambled",~2 fold
same,logFC mig-14,[1]; [15],1.6196
same,logFC virK,[1]; [15],2.3333
same,logFC SL1344_1602,[1]; [7],1.058
same,logFC cdh-a,[1]; [7],0.9654
same,logFC yfbE,[1]; [7],0.9577
same,"MIC in μM, SL1344 ΔphoP",[4],≥10 µM
same,"MIC in μM, LT2 wt",[5],>10 µM
same,MIC,[2]; [12],>10 µM
same,MIC,[2]; [13],>10 µM
same,"MIC in μM, SL1344 wt",[2]; [14],>10 µM
RQIKIWFQNRRMKWKK [ANT-acpP-scr],MIC,[2]; [12],>10 µM
RQIKIWFQNRRMKWKK [ANT-acpP],MIC,"[2]; Table 1, ∼10^5 cfu/ml, non-cation-adjusted MHB, 37°C, 24 h",12 µg/mL
same,MIC,[2]; [12],3.3 µM
VELPPPVELPPPVELPPP [SAPE-acpP-scr],MIC,[2]; [12],>10 µM
VRLPPPVRLPPPVRLPPP [SAP-acpP-scr],MIC,[2]; [12],>10 µM
